Data published in ChEMBL document CHEMBL1154481, “Pharmacophore modeling of diverse classes of p38 MAP kinase inhibitors” (Eur J Med Chem, 2008).

Assay: Inhibition of p38 MAPK

Row | Structure (SMILES) | IC50
1 | O=C1NCc2nc(Sc3ccccc3)ccc2N1c1c(Cl)cccc1Cl | 270 nM
2 | CCN(CC)CCCn1ccc2cc(C(=O)N3CCC(Cc4ccccc4)CC3)c(Cl)cc21 | 200 nM
3 | COc1cc2[nH]ccc2cc1C(=O)N1C[C@H](C)N(Cc2ccccc2)C[C@H]1C | 1300 nM
4 | Nc1nc(N)c(F)c(-c2nc(-c3cccc(C(F)(F)F)c3)c(-c3ccncc3)[nH]2)c1F | 470 nM
5 | O=C(c1cccc2[nH]ccc12)N1CCN(Cc2ccccc2)CC1 | 4700 nM
6 | Cc1ccccc1-c1nc(N(C(N)=O)c2c(F)cccc2F)c2ncn(C)c2n1 | 140 nM
7 | O=C1CCC(c2c(-c3cccc(C(F)(F)F)c3)nc3ccccn23)=NN1c1ccccc1Cl | 170 nM
8 | O=C(c1ccc2[nH]cc(CN3CCOCC3)c2c1)N1CCC(Cc2ccccc2)CC1 | 6600 nM
9 | Nc1ccn2c(-c3ccncn3)c(-c3ccccc3)nc2n1 | 990 nM

Stronger by IC50, values ahead:

Row | IC50 | Structure (SMILES)
10 | 0.5 nM | O=C1NCc2c(-c3ccc(F)cc3Cl)cc(C3CCN(CC4CC4)CC3)cc2N1c1c(Cl)cccc1Cl
11 | 40 nM | Cc1ccc(NC(=O)c2ccnc(N3CCOCC3)c2)cc1Nc1ccnc(OC2CCN(C)CC2)n1
12 | 0.2 nM | CC(C)(C)N1CCC(c2cc(-c3ccc(F)cc3Cl)c3c(c2)N(c2c(Cl)cccc2Cl)C(=O)NC3)CC1
13 | 22 nM | Fc1ccc(-c2[nH]c3ccc4[nH]c(Cc5ccccc5)nc4c3c2-c2ccncc2)cc1
14 | 8 nM | O=C1CCC(c2c(-c3ccc(F)cc3F)nc3ccccn23)=NN1c1c(Cl)cccc1Cl
15 | 14 nM | COc1ccc(C#CC(C)(C)N)cc1C(=O)c1ccc(Nc2ccc(F)cc2F)cc1
16 | 6 nM | Nc1ccn2c(-c3ccnc(NCc4ccccc4)c3)c(-c3ccc(F)cc3)nc2n1
17 | 2 nM | COC[C@H](C)Nc1cc(-c2c(-c3ccccc3)nc3nc(N)ccn23)ccn1
18 | 8 nM | Cc1ccccc1N1N=C(c2c(-c3ccc(F)cc3F)nc3ccccn23)CCC1=O
19 | 0.6 nM | O=C1NCc2c(-c3ccc(F)cc3Cl)cc(C3CCN(CC4CCC4)CC3)cc2N1c1c(Cl)cccc1Cl
20 | 110 nM | Cc1ccccc1Sc1ccc2c(n1)CNC(=O)N2c1c(Cl)cccc1Cl
21 | 49 nM | O=c1ccc(-c2c(-c3ccc(F)cc3)nc3ccccn23)nn1-c1c(Cl)cccc1Cl
